Our source for the IC50 values is US12053451B2, “Arginase inhibitors and their therapeutic applications” (OncoArendi Therapeutics S.A., priority 2016, dated 2024).

The target in assay [1] is T1, recombinant human arginase 1 (Homo sapiens, UniProt P05089).
T1 construct: purchased Biolegend 552502
T1 sequence (P05089 1-322): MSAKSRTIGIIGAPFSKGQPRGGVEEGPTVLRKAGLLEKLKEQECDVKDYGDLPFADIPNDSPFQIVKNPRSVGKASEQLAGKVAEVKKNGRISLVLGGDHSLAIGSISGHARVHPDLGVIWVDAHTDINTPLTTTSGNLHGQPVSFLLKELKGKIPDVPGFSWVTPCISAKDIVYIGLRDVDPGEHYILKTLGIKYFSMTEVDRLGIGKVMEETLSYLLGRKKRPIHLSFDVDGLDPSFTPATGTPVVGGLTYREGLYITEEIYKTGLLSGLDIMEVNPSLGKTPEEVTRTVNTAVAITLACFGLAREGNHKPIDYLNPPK
Description: Human arginase activity assay (urea measurement), arginase 1. The class given is biochemical. The note with it: recombinant human arginase 1, pH 7.4, 37° C., 60 min; * = value for the most potent diastereoisomer or the mixture of diastereoisomers; read-out: Activity Class (ARG I). Here is the method: (§1) Human Arginase Activity Assay
The assay was run in the 96-well plate format, each reaction in the total volume of 100 uL. The assay is based on urea measurement, which is a product of L-arginine enzymatic degradation. […] The color product is developed by adding a mixture of reagent A (4 mM oPA in 50 mM boric acid in 1M sulfuric acid, 0.03% Brij-35) and reagent B (4 mM NED in 50 mM boric acid in 1M sulfuric acid, 0.03% Brij-35) in equal proportions. The absorbance for each well was measured at 530 nm.
(§2) For positive control, only the enzyme and substrate were used, the negative controls contained substrate solution with assay buffer. After incubating the microtiter plate at 37° C. for 60 min 150 μL of mixed reagents A and B was added to each well to stop the reaction. Absorbance was measured (λ=530 nm) 20 minutes later, after color development. The urea production in the absence of any compound was considered the maximum arginase activity. The absorbance in the absence of arginase (background) was subtracted from all the values. The normalized OD was used to generate a concentration-response curve by plotting the percent of inhibition against log[concentration] of the compound and using regression analysis (GraphPad Prism 7.0) to compute the IC50 values.

Assay [2] addresses T2, recombinant human arginase 2 (Homo sapiens, UniProt P78540).
T2 construct: made in house; host or cells: CHO
T2 sequence (P78540 23-354): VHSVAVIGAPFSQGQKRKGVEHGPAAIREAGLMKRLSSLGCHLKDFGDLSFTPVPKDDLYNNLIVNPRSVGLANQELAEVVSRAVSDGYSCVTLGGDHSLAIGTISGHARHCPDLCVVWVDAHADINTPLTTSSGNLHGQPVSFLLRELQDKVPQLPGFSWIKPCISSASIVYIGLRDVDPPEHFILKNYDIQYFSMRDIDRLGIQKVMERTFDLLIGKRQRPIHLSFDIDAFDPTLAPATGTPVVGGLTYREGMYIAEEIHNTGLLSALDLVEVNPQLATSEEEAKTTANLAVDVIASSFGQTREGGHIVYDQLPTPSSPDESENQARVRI
Description: Human arginase activity assay (urea measurement), arginase 2. The class given is biochemical. The note with it: for selected examples class estimated from % of inhibition at 1 μM and 100 μM, * = most potent diastereoisomer or mixture of diastereoisomers, read-out: Activity Class (ARG II). Here is the method: as §1
An enzymatic assay with recombinant human arginases 1 (Biolegend, Cat. No. 552502) and 2 (homemade in eukaryotic expression system of CHO, purified by FPLC) was used in order to assess inhibitory activity of the compounds. The assay was run in the 96-well plate format, each reaction in the total volume of 100 uL. The assay is based on urea measurement, which is a product of L-arginine enzymatic degradation. (Baggio et al. J Pharmacol. Exp. Ther. 1999, 290, 1409-1416). The color product is developed by adding a mixture of reagent A (4 mM oPA in 50 mM boric acid in 1M sulfuric acid, 0.03% Brij-35) and reagent B (4 mM NED in 50 mM boric acid in 1M sulfuric acid, 0.03% Brij-35) in equal proportions. The absorbance for each well was measured at 530 nm.
as §2, with “Briefly, to each well of a 96-well microtiter plate 40 μL of enzyme in the reaction assay buffer (pH 7.4, 100 mM sodium phosphate buffer, 130 mM NaCl, 1 mg/mL albumin), 50 μL of the test compound solution and 10 μL of enzyme substrate solution (L-arginine hydrochloride, natural pH 5.6, final concentration 20 mM and a cofactor—manganese chloride, final concentration 150 μM) was added. For” for “For”
For selected examples the activity class for ARG2 was estimated based on % of inhibition for 1 μM and 100 μM concentration of tested compounds.

Counter-ions that a name gives are not always drawn.

Regarding `NC[C@H]1C[C@](N)(C(=O)O)C[C@@H]1CCB(O)O` (racemic) [Example 6, rac-(1S,3S,4S)-1-Amino-3-(aminomethyl)-4-(2-boronoethyl)cyclopentane-1-carboxylic acid dihydrochloride], the IC50 in assay [1] and in assay [2] was 1 to 10 µM each time.
As for `N[C@]1(C(=O)O)C[C@H](CCB(O)O)CC[C@H]1O` (racemic) [Example 13, rac-(1R,2R,5R)-1-Amino-5-(2-boronoethyl)-2-hydroxycyclohexane-1-carboxylic acid hydrochloride], the values for the IC50 in assay [1] and in assay [2] were 0.1 to 1 µM and 10 to 100 µM, respectively.
As to `N[C@@]1(C(=O)O)C[C@H](CCB(O)O)CC[C@@H]1O` (racemic) [Example 15, rac-(1S,2S,5R)-1-Amino-5-(2-boronoethyl)-2-hydroxycyclohexane-1-carboxylic acid hydrochloride], the IC50 in assay [1] and in assay [2] was more than 100 µM throughout.
Consider `NC1(C(=O)O)C[C@H](CCB(O)O)CC[C@@H]1O` (mixture of isomers) [Example 16, rac-(2S,5R)-1-Amino-5-(2-boronoethyl)-2-hydroxycyclohexane-1-carboxylic acid hydrochloride], for which the IC50 in assay [1] and in assay [2] was 10 to 100 µM throughout.
With `CN(C)C[C@@H]1CC[C@@H](CCB(O)O)C[C@@]1(N)C(=O)O` (racemic) [Example 19, rac-(1S,2S,5R)-1-amino-5-(2-boronoethyl)-2-((dimethylamino)methyl)cyclohexane-1-carboxylic acid dihydrochloride], the IC50 in assay [1] and in assay [2] was 1 to 10 µM in each case.
As to `N[C@]1(C(=O)O)C[C@H](CCB(O)O)CC[C@H]1CNCC(F)(F)F` (racemic) [Example 36, rac-(1R,2S,5R)-1-amino-5-(2-boronoethyl)-2-(((2,2,2-trifluoroethyl)amino)methyl)cyclohexanecarboxylic acid dihydrochloride], the IC50 in assay [1] was more than 100 µM; in assay [2], 0.1 to 1 µM.
The matching figures for `COc1ccc(N(C)C[C@@H]2CC[C@@H](CCB(O)O)C[C@]2(N)C(=O)O)cc1` (racemic) [Example 37, rac-(1R,2S,5R)-1-amino-5-(2-boronoethyl)-2-(((4-methoxyphenyl)(methyl)amino)methyl)cyclohexanecarboxylic acid dihydrochloride]: 1 to 10 µM and 1 to 10 µM.
`CN(C[C@@H]1CC[C@@H](CCB(O)O)C[C@]1(N)C(=O)O)c1ccccc1` (racemic) [Example 40, rac-(1R,2S,5R)-1-amino-5-(2-boronoethyl)-2-((methyl(phenyl)amino)methyl)cyclohexanecarboxylic acid dihydrochloride]: the IC50 in assay [1] and in assay [2] was 1 to 10 µM each time.
As for `CN1C[C@@H](CCB(O)O)C[C@](N)(C(=O)O)C1` (racemic) [Example 59, rac-(3R,5S)-3-amino-5-(2-boronoethyl)-1-methylpiperidine-3-carboxylic acid], the IC50 in assay [1] and in assay [2] was 1 to 10 µM each time.
In the case of `CN(C)CCC1CC[C@@H](CCB(O)O)CC1(N)C(=O)O` (single isomer, unassigned) [Example 47, dihydrochloride], the IC50 in assay [1] is 0.1 to 1 µM; in assay [2], 0.001 to 0.1 µM.
Take `NC1(C(=O)O)CC(CCB(O)O)CCC1(O)Cc1ccc(Cl)cc1` (single isomer, unassigned) [Example 52, 1-amino-5-(2-boronoethyl)-2-(4-chlorobenzyl)-2-hydroxycyclohexanecarboxylic acid hydrochloride]: the IC50 in assay [1] and in assay [2] was 10 to 100 µM throughout.
With `NC1(C(=O)O)CNC(CCB(O)O)C1` (stereo not drawn) [Example 9, 3-Amino-5-(2-boronoethyl)pyrrolidine-3-carboxylic acid dihydrochloride], the IC50 in assay [1] and in assay [2] was more than 100 µM in each case.
As for `NC1(C(=O)O)CCCCC(CCB(O)O)C1` (stereo not drawn) [Example 12, 1-Amino-3-(2-boronoethyl)cycloheptane-1-carboxylic acid hydrochloride], the IC50 in assay [1] and in assay [2] was more than 100 µM throughout.
`CN(Cc1ccccc1)CC1CCC(CCB(O)O)CC1(N)C(=O)O` (stereo not drawn) [Example 21, 1-Amino-2-((benzyl(methyl)amino)methyl)-5-(2-boronoethyl)cyclohexane-1-carboxylic acid dihydrochloride]: the IC50 is 0.1 to 1 µM in assay [1] and 1 to 10 µM in assay [2].
The matching figures for `CC1=CCC(CCB(O)O)CC1(N)C(=O)O` (stereo not drawn) [Example 51, 1-amino-5-(2-boronoethyl)-2-methylcyclohex-2-enecarboxylic acid hydrochloride]: 0.1 to 1 µM and 1 to 10 µM.
